Results taken from EP0887077A1, “Use of azulene derivatives as metalloprotease inhibitors” (BOEHRINGER MANNHEIM GMBH, priority 1997, dated 1998).

System: TNF-α
Assay: Inhibition of LPS-induced TNFα release from peripheral human leukocytes, TNFα-specific enzyme immunoassay of culture supernatant
Type: cell-based
Conditions: Leukocyte, Periphere humane Leukozyten, LPS über 22 Std., TNFα im Kulturüberstand
Excerpt: Periphere humane Leukozyten werden mit LPS über 22 Std. inkubiert. Der Kultutüberstand wird mit einem TNFα spezifischen Enzym-Immuno-Assay untersucht. Durch Vergleich der für die Messproben erhaltenen TNFα-Konzentrationen mit den ungehemmten Proben wird die prozentuale Hemmung für die einzelne Probe berechnet. Aus der Konzentrationsabhängigkeit der Hemmwerte werden rechnerisch die IC50-Werte bestimmt. […]
Die IC50-Werte der oben genannten Substanzen, die Gegenstand dieses Patentes sind, gegen TNF-α finden sich in der folgenden Tabelle;

SMILES | IC50 [nM]
CCOC(=O)Cc1ccc2c(C(=O)OCC)c(N)c(C(=O)OCC)c-2cc1 [Verbindung 1, 2-Amino-6-ethoxycarbonylmethyl-azulen-1,3-dicarbonsäurediethylester] | 200
CCOC(=O)Cc1ccc2c(C(=O)OCC)c(N(C(C)=O)C(C)=O)c(C(=O)OCC)c-2cc1 [Verbindung 2, 2-Diacetylamino-6-ethoxycarbonylmethyl-azulen-1,3-dicarbonsäurediethylester] | 50
CCOC(=O)c1c2ccc(C(C(=O)OCC)C(=O)OCC)ccc-2c(C(=O)OCC)c1N(C(C)=O)C(C)=O [Verbindung 3, 6-(Bis-ethoxycarbonylmethyl)-2-diacetylamino-azulen-1,3-dicarbonsäurediethylester] | 180
CCOC(=O)c1c2ccc(Br)ccc-2c(C(=O)OCC)c1N(C(C)=O)C(C)=O [Verbindung 4, 6-Bromo-2-diacetylamino-azulen-1,3-dicarbonsäurediethylester] | 1300
CCOC(=O)c1c2ccc(Br)ccc-2c(C(=O)OCC)c1NC(C)=O [Verbindung 5, 2-Acetylamino-6-bromo-azulen-1,3-dicarbonsäurediethylester] | 1100
CCOC(=O)Cc1ccc2c(C(=O)OCC)c(OCC)c(C(=O)OCC)c-2cc1 [Verbindung 6, 2-Ethoxy-6-ethoxycarbonylmethyl-azulen-1,3-dicarbonsäurediethylester] | 11900
CCOC(=O)c1c2cccccc-2c(C(=O)OCC)c1N [Verbindung 7, 2-Amino-azulen-1,3-dicarbonsäurediethylester] | 25400
CCOC(=O)c1c2ccc(S)ccc-2c(C(=O)OCC)c1N [Verbindung 8, 2-Amino-6-mercapto-azulen-1,3-dicarbonsäurediethylester] | 26000
CCOC(=O)C(Cc1ccc2c(C(=O)OCC)c(Cl)c(C(=O)OCC)c-2cc1)=NO [Verbindung 9, 2-Chloro-6-(2-ethoxycarbonyl-2-hydroxyimino-ethyl)-azulen-1,3-dicarbonsäurediethylester] | 2700
Cc1cc(C=CC=O)c2c(C)ccc(C(C)C)cc1-2 [Verbindung 10, 3-(5-isopropyl-3,8-dimethyl-azulen-1-yl)-propenal] | 10700
